Test results as given in ChEMBL document CHEMBL3797081, “Application of virtual screening to the discovery of novel nicotinamide phosphoribosyltransferase (NAMPT) inhibitors with potential for the treatment of cancer and axonopathies” (Bioorg Med Chem Lett, 2016).
Each block holds one compound with its values, some of them ahead of it. Active and inactive are the calls of the source. No cut-off for these calls is given here.

How the values were obtained:
[1] = target: Nicotinamide phosphoribosyltransferase (Homo sapiens, UniProt P43490); experiment: Inhibition of human NAMPT using NAM as substrate assessed as NMN formation preincubated for 5 mins followed by substrate addition measured after 15 mins by fluorometric assay
Nicotinamide phosphoribosyltransferase, sequence (P43490 whole entry): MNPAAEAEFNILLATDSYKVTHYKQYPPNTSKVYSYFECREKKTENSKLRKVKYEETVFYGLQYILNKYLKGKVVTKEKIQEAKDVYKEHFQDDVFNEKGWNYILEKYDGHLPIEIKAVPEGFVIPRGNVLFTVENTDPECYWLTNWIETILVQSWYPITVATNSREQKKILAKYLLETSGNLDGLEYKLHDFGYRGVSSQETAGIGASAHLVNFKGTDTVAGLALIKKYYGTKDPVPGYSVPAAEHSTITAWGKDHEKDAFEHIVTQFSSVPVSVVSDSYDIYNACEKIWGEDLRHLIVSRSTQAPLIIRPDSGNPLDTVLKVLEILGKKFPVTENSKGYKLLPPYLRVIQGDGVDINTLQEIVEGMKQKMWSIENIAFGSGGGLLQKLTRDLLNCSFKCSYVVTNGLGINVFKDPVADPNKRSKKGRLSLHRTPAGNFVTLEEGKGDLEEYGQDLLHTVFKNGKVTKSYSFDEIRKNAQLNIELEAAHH

CYP1A2 = target: T1, CYP1A2 (Homo sapiens, UniProt P05177); experiment: Inhibition of CYP1A2 (unknown origin) at 3 uM relative to control; format: ADME
T1 sequence (P05177 whole entry): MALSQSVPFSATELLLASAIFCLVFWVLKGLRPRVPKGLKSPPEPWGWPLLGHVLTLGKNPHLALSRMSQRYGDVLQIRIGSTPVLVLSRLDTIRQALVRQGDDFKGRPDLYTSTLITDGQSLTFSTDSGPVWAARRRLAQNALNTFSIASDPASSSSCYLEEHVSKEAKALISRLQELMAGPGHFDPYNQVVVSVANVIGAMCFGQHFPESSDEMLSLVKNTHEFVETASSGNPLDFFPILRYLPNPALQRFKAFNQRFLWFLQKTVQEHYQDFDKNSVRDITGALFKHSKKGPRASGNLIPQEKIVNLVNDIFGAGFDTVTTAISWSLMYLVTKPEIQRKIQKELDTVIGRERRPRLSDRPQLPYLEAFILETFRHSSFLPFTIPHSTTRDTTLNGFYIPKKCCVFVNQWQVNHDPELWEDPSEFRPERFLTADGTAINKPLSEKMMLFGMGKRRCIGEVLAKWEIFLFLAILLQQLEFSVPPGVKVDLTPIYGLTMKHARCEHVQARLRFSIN

[2] = Metabolic stability in mouse liver microsomes assessed as parent compound remaining at 5 uM measured at 30 mins in presence of NADPH; format: ADME; conditions: read-out: Stability
[3] = Metabolic stability in human liver microsomes assessed as parent compound remaining at 5 uM measured at 30 mins in absence of NADPH; format: ADME; conditions: read-out: Stability
[4] = Metabolic stability in human liver microsomes assessed as parent compound remaining at 5 uM measured at 30 mins in presence of NADPH; format: ADME; conditions: read-out: Stability
CYP2C9 = CYP2C9 (Homo sapiens, UniProt P11712); experiment: Inhibition of CYP2C9 (unknown origin) at 3 uM relative to control; format: ADME
CYP2C9, sequence (P11712 whole entry): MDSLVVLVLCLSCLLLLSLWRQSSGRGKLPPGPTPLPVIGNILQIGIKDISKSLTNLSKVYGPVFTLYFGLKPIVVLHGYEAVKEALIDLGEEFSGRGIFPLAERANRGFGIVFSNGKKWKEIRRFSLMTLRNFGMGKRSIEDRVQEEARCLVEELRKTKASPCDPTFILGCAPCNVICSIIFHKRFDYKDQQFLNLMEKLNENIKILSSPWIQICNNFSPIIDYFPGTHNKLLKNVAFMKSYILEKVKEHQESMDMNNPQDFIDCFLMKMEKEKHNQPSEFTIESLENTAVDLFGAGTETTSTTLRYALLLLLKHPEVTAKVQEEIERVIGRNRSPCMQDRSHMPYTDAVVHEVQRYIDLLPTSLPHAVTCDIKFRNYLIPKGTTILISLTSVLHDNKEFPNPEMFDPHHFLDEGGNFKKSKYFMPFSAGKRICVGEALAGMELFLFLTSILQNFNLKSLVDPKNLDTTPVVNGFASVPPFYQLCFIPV

CYP3A4 = CYP3A4 (Homo sapiens, UniProt P08684); experiment: Inhibition of CYP3A4 (unknown origin) at 3 uM relative to control; format: ADME
CYP3A4, sequence (P08684 whole entry): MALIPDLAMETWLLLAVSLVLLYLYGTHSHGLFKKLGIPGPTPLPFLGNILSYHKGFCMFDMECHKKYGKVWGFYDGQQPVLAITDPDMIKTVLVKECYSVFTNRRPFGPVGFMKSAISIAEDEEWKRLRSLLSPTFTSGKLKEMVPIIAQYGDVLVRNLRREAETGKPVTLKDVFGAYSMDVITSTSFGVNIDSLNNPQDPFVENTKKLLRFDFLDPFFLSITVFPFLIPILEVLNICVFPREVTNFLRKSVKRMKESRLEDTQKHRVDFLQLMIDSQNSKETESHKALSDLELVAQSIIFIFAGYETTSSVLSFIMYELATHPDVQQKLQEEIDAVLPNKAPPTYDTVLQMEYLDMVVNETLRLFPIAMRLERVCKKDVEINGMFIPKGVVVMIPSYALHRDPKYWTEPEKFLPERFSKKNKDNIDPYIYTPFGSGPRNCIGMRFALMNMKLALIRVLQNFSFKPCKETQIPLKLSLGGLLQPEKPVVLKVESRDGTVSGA

[5] = target: Nicotinamide phosphoribosyltransferase (Mus musculus) (UniProt Q99KQ4); experiment: Inhibition of NAMPT in neonatal mouse superior cervical ganglion explant assessed as delay in degeneration of injured axons at 1 uM treated <10 mins prior to axon transection meaured at 8 hrs by phase contrast microscopy; format: tissue-based
Nicotinamide phosphoribosyltransferase (Mus musculus), sequence (Q99KQ4 whole entry, looked up): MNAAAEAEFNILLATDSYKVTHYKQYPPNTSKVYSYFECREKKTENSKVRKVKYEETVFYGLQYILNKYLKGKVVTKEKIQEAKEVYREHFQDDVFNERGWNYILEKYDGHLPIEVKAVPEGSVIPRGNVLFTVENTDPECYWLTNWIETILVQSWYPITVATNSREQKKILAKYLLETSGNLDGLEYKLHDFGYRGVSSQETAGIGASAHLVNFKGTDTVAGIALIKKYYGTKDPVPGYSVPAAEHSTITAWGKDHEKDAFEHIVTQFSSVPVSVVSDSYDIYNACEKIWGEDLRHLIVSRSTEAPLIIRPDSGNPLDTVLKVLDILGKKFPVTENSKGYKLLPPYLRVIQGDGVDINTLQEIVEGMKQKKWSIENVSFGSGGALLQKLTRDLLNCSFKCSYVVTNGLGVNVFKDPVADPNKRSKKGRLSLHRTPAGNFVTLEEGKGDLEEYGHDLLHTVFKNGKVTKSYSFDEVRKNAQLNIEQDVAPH

[6] = Plasma protein binding in human; format: ADME, cell-free; conditions: read-out: PPB (converted)
[7] = Permeability across human Caco2 cells assessed as drug recovery; format: ADME, cell-based; conditions: Caco-2, read-out: Drug recovery
[8] = Metabolic stability in mouse liver microsomes assessed as parent compound remaining at 5 uM measured at 30 mins in absence of NADPH; format: ADME; conditions: read-out: Stability
CYP2D6 = CYP2D6 (Homo sapiens, UniProt P10635); experiment: Inhibition of CYP2D6 (unknown origin) at 3 uM relative to control; format: ADME
CYP2D6, sequence (P10635 whole entry): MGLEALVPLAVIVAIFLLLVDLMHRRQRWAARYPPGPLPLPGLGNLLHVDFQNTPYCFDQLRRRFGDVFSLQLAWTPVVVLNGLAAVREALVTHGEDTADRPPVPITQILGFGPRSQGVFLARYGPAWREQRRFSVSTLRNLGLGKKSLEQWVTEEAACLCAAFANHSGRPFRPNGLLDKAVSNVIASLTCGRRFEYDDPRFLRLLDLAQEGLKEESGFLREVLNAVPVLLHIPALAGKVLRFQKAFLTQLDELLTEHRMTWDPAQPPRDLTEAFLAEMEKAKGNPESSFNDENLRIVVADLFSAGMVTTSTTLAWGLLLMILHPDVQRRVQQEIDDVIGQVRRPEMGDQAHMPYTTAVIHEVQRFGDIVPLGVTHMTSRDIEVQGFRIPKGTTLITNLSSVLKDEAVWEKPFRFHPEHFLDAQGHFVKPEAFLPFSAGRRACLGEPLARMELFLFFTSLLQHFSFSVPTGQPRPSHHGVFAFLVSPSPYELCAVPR

[9] = target: Nicotinamide phosphoribosyltransferase (Mus musculus) (UniProt Q99KQ4); conditions: Superior cervical ganglion, 100 nM
Description: Inhibition of NAMPT in neonatal mouse superior cervical ganglion explant assessed as delay in degeneration of injured axons at 100 nM treated <10 mins prior to axon transection meaured at 8 to 24 hrs by phase contrast microscopy

- IC50 [1]: 320 nM
Compound: O=C(NCc1cccnc1)c1cc2n(n1)CCN(Cc1ccc(Cl)c(Cl)c1)C2=O

- IC50 [1]: 5000 nM
Compound: O=C(NCCOc1ccc2ccccc2c1)NCc1cccnc1

- inhibition at 3 µM (CYP1A2): 23%
- remaining at 0.5 h, 5 µM [2]: 19%
- remaining at 0.5 h, 5 µM [3]: 104%
- remaining at 0.5 h, 5 µM [4]: 63%
- inhibition at 3 µM (CYP2C9): 43%
- inhibition at 3 µM (CYP3A4): 20%
- fraction unbound [6]: 0.004
- recovery [7]: < 70%
- remaining at 0.5 h, 5 µM [8]: 96%
- IC50 [1]: 243 nM
- inhibition at 3 µM (CYP2D6): 3%
Compound: O=C(c1cc(-c2cccnc2)[nH]n1)N1CCN(C(c2ccccc2)c2ccccc2)CC1
- inhibition [5]: Active

- IC50 [1]: 220 nM
Compound: O=C(/C=C/c1cccnc1)Nc1ccc(C(=O)NCC(F)(F)F)cc1

- IC50 [1]: 780 nM
Compound: O=C(/C=C/c1cccnc1)N1CCN(Cc2ccc(OC(F)(F)F)cc2)CC1

- IC50 [1]: 1900 nM
Compound: O=C(COc1ccc(S(=O)(=O)Nc2ccc(Cl)cc2)cc1)NCc1cccnc1

- inhibition [9]: Active
Compound: O=C(/C=C/c1cccnc1)NCCCCC1CCN(C(=O)c2ccccc2)CC1

- IC50 [1]: 940 nM
Compound: CC1(C)Cc2cccc(OCCNC(=O)/C=C/c3cccnc3)c2O1

- IC50 [1]: 3800 nM
Compound: O=C(c1cc(-c2cccnc2)n[nH]1)N1CCN(C(=O)c2cc3ccccc3[nH]2)CC1

- IC50 [1]: 670 nM
Compound: O=C(/C=C/c1cccnc1)Nc1ccc(-c2nnc3n2CCCCC3)cc1

- IC50 [1]: 3200 nM
Compound: O=C(/C=C/c1cccnc1)N1CCN(Cc2csc(-c3ccc(F)cc3)n2)CC1

- inhibition at 3 µM (CYP1A2): 22%
- remaining at 0.5 h, 5 µM [2]: 43%
- remaining at 0.5 h, 5 µM [3]: 96%
- remaining at 0.5 h, 5 µM [4]: 7%
- inhibition at 3 µM (CYP2C9): 31%
- inhibition at 3 µM (CYP3A4): 63%
- fraction unbound [6]: 0.008
- recovery [7]: < 70%
- remaining at 0.5 h, 5 µM [8]: 87%
- IC50 [1]: 41.8 nM
- inhibition at 3 µM (CYP2D6): 1%
Compound: CCCCc1ccc(NC(=O)C2CC2c2cccnc2)cc1 (stereo not drawn)
